Test [1] has as its target T1, rat androgen receptors (rat AR) (Rattus norvegicus, UniProt P15207).
T1 construct: from tissue; host or cells: prostate of orchiectomized 11-week-old male SD rats (cytosolic supernatant of homogenate)
T1 sequence (P15207 1-902): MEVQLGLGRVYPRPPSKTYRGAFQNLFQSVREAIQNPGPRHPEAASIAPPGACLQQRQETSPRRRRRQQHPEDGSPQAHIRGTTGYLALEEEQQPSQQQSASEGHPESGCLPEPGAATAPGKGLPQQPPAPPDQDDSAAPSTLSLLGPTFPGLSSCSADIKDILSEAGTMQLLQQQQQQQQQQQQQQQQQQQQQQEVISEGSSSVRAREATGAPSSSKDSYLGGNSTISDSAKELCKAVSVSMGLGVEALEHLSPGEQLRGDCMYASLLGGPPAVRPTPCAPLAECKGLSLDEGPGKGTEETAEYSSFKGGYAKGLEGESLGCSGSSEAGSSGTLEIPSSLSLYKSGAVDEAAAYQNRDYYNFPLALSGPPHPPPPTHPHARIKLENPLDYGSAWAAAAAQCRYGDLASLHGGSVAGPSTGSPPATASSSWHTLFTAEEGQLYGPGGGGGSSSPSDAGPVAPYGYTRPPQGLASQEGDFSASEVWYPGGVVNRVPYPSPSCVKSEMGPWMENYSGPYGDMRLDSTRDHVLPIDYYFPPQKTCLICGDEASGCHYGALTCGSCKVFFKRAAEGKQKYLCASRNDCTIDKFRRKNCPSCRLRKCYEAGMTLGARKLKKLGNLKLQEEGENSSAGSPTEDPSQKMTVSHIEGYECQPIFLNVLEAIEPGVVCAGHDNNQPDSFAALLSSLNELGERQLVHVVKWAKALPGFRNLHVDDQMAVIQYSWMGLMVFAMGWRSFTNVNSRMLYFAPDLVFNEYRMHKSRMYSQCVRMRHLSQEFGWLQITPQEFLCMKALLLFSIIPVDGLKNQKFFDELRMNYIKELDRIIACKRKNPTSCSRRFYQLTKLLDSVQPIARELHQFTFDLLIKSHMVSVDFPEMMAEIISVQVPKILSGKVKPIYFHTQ
Description: Test for competitive binding to rat androgen receptors (rat AR). To be noted: RBA=100×(IC50 of hydroxyflutamide)/(IC50 of compound); 3H-testosterone, rat prostate AR fraction. The protocol: Preparation of a rat AR fraction: Prostates were harvested into ice-cooled ET buffer (10 mM Tris, 1 mM EDTA, 5 mM DTT, 10 mM sodium molybdate, pH 7.4) 3 days after orchiectomy in 11-week-old male SD rats. The prostate was finely cut, and ET buffer was added, whereafter the mixture was homogenized using a homogenizer. The homogenate was ultracentrifuged (100,000×g, 60 min, 4° C.), and the supernatant was used as a rat AR fraction (hereinafter referred to as ARF).
Binding test: ^3H-testosterone (hereinafter referred to as ^3H-T) was diluted with ET buffer. Dihydrotestosterone (DHT) was prepared so as to have a final concentration of 1 μM which was 400 times the maximum concentration of ^3H-T (2.5 nM). The ^3H-T solution was added to a 1.5 ml tube containing DHT, no DHT, or various concentrations of a test compound. Further, 200 μg ARF was added to adjust the final volume to 100 μl. The mixture was incubated for 2 hours at 4° C., and then 300 μl of a 0.05% dextran T70-1.0% activated carbon solution was added. The mixture was further incubated for 15 minutes in ice to remove the free ^3H-T by adsorption. After centrifugation (4° C., 2,500 rpm, 5 min), 275 μl of the supernatant was harvested into a liquid scintillation vial, and 2 ml of Clear Sol was added. The mixture was stirred, allowed to stand, and measured for ^3H radioactivity with a liquid scintillation counter.
Calculation of the relative binding inhibition rate: The binding inhibition rate (%) of the compound according to the present invention was calculated from the following equation, and the 50% inhibition concentration (IC50) was calculated by the probit analysis of the concentration-binding inhibition curve.
The relative binding inhibition rate (RBA: Relative Binding Affinity) was determined from the following equation (Endocrinology 138, 863-870, 1997): RBA=100×(IC50 of hydroxyflutamide)/(IC50 of a compound of the present invention)

In test [2] the test system is orchiectomized (ORX) rats. Description: Test Example 3: effect on prostate, levator ani muscle and femoral bone mineral density in ORX rats (subcutaneous). It is filed as in vivo, rat. The procedure: (§1) Testes were removed from 12-week-old male SD rats. Starting on the next day, the compound of Example 12 or 65 (30 mg/kg) or DHT (0.1, 1, 10 mg/kg) was subcutaneously administered once daily for four consecutive weeks on a 5-day-a-week basis. The Example compounds and DHT were dissolved in dimethyl sulfoxide and diluted 10-fold with olive oil to prepare solutions with various concentrations for use in the test. In an ORX control group, dimethyl sulfoxide as diluted 10-fold with olive oil was used for the test. Rats which had been falsely operated on without orchiectomy were used as a sham control group. On the next day after final administration, the wet weights of the ventral prostate and levator ani muscle were measured and the right femoral bone mineral density was measured by DEXA (double energy X-ray absorption) to evaluate the in vivo efficacy of the compounds of Example 12 and 65.

The subject of test [3] is orchiectomized (ORX) rats. Description: Test Example 4: effect on prostate, levator ani muscle and femoral bone mineral density in ORX rats (subcutaneous). In kind it is in vivo, rat. To be noted: for Prostate weight as % of the level of the sham control group: 30 mg/kg sc; for Femoral bone mineral density / Weight of levator ani muscle / Weight of prostate: 30 mg/kg sc once daily, 5 days a week, 4 weeks. The protocol: as §1, with “Example 113” for “Example 12”, “or 114” for “or 65”, “DHT (10” for “DHT (0.1, 1, 10”, “test. […]” for “test. Rats which had been falsely operated on without orchiectomy were used as a sham control group.”, “and 114.” for “and 65.”

Test [4] concerns orchiectomized (ORX) rats. Kind of test: Test Example 5: effect of oral administration on prostate, levator ani muscle and femoral bone mineral density in ORX rats. In kind it is in vivo, rat. The procedure: Testes were removed from 12-week-old male SD rats. Starting on the next day, the compound of Example 1 (100 mg/10 ml/kg) was orally administered once daily for four consecutive weeks on a 5-day-a-week basis. As a positive control, testosterone propionate (TP) (10 mg/kg) was subcutaneously administered once daily on a continuous 5-day-a-week basis. The test compound was suspended in a 0.5% methyl cellulose solution used as a solvent whereas TP was dissolved in dimethyl sulfoxide and diluted 10-fold with olive oil for use in the test. In an ORX control group, dimethyl sulfoxide as diluted 10-fold with olive oil was used for the test. Rats which had been falsely operated on without orchiectomy were used as a sham control group. On the next day after final administration, the wet weights of the ventral prostate and levator ani muscle were measured and the right femoral bone mineral density was measured by DEXA (double energy X-ray absorption) to evaluate the in vivo efficacy of the compound of Example 1. The results are shown in Table 19 and in FIGS. 10 to 12.

Test [5] relates to orchiectomized (ORX) rats. Description: Test Example 2: effect on prostate, levator ani muscle and femoral bone mineral density in ORX rats (subcutaneous). It is filed as in vivo, rat. Particulars: for Femoral bone mineral density / Weight of levator ani muscle / Weight of prostate: 5 days a week, 4 weeks. The protocol: as §1, with “1 (3, 10, 30” for “12 or 65 (30”, “compound” for “compounds”, “1.” for “12 and 65.”

The mark [6] stands for this setting: 30 mg/kg sc once daily, 5 days a week, 4 weeks.
The mark [7] stands for this setting: 100 mg/kg PO once daily, 5 days a week, 4 weeks.

This is an account of results in patent US20060128737A1, “Androgen receptor agonists” (KAKEN PHARMACEUTICAL CO., LTD., priority 2003, published 2006).

For `CC(C)(O)C(=O)Nc1ccc([N+](=O)[O-])c(C(F)(F)F)c1` [Hydroxyflutamide, hydroxyflutamide, reference compound], the “RBA (Relative Binding Affinity)” value in test [1] is 100.
As for `CC(C)(CNC(=O)c1ccc(Br)cc1)[C@H]1Nc2ccc([N+](=O)[O-])cc2C2OCC[C@H]21` (relative stereo) [Example 12, (3aS*,4S*,9bS*)-4-bromo-N-[2-methyl-2-(8-nitro-2,3,3a,4,5,9b-hexahydro-furo[3,2-c]quinolin-4-yl)propyl]benzamide], in test [2] (30 mg/kg sc), the “Prostate weight as % of the level of the sham control group” value (“Prostate weight as %” for short) is “about 35%”. For the same compound, in test [2] (setting [6]), the “Femoral bone mineral density” value is 122 ± 5 mg/cm^2, the “Weight of levator ani muscle” value worked out at 54 ± 5 mg/100 g body weight and the Weight of prostate turned out to be 36 ± 6 mg/100 g body weight. The “RBA (Relative Binding Affinity)” value in test [1] is reported as 94.
Take `CCOc1ccc(C(=O)NCC(C)(C)[C@H]2Nc3ccc(C#N)cc3[C@H]3OCC[C@H]32)cc1` (relative stereo) [Example 114, (3aS*,4S*,9bS*)-N-[2-(8-cyano-2,3,3a,4,5,9b-hexahydro-furo[3,2-c]quinolin-4-yl)-2-methyl-propyl]-4-ethoxybenzamide]: in test [3], the “Prostate weight as %” value was “about 60%”, the “Femoral bone mineral density” value was 150 ± 8 mg/cm^2, the “Weight of levator ani muscle” value came to 66 ± 11 mg/100 g body weight and the Weight of prostate came to 86 ± 17 mg/100 g body weight. Besides, in test [1], the “RBA (Relative Binding Affinity)” value is 55.
Turning to `COCC(=O)NCC(C)(C)[C@H]1Nc2ccc([N+](=O)[O-])cc2C2C=CC[C@H]21` (relative stereo) [Example 1, (3aR*,4S*,9bS*)-2-methoxy-N-[2-methyl-2-(8-nitro-3a,4,5,9b-tetrahydro-3H-cyclopenta[c]quinolin-4-yl)propyl]-1-acetamide], the “Femoral bone mineral density” value was determined as 135 ± 6 mg/cm^2 in test [4] (setting [7]), 116 ± 6 mg/cm^2 in test [5] (3 mg/kg sc once daily), 119 ± 3 mg/cm^2 in test [5] (10 mg/kg sc once daily) and 122 ± 1 mg/cm^2 in test [5] (30 mg/kg sc once daily). Also, the “Weight of levator ani muscle” value in test [4] (setting [7]) came out at 87 ± 5 mg/100 g body weight; in test [5] (3 mg/kg sc once daily) it was 56 ± 7 mg/100 g body weight; in test [5] (10 mg/kg sc once daily), 65 ± 6 mg/100 g body weight; in test [5] (30 mg/kg sc once daily) it was 71 ± 4 mg/100 g body weight. Further, the Weight of prostate in test [4] (setting [7]) stood at 117 ± 23 mg/100 g body weight; in test [5] (3 mg/kg sc once daily) it was 41 ± 8 mg/100 g body weight; in test [5] (10 mg/kg sc once daily), 61 ± 10 mg/100 g body weight; in test [5] (30 mg/kg sc once daily), 82 ± 10 mg/100 g body weight. For the same compound, the “Prostate weight as %” value in test [4] (100 mg/kg orally) is “about 75%”; in test [5] (30 mg/kg sc), “about 80%”. The “RBA (Relative Binding Affinity)” value in test [1] came to 1076.
As to `CCOc1ccc(C(=O)NCC(C)(C)[C@H]2Nc3ccc([N+](=O)[O-])cc3C3OCC[C@H]32)cc1` (some centres unmarked) [Example 20], the “RBA (Relative Binding Affinity)” value in test [1] is 161.
As to `CC(C)(CNC(=O)c1ccc(OC(F)(F)F)cc1)[C@H]1Nc2ccc(C#N)cc2[C@H]2OCC[C@H]21` (relative stereo) [Example 113, (3aS*,4S*,9bS*)-N-[2-(8-cyano-2,3,3a,4,5,9b-hexahydro-furo[3,2-c]quinolin-4-yl)-2-methyl-propyl]-4-trifluoromethoxybenzamide], in test [3], the “Prostate weight as %” value is reported as “about 40%”, the “Femoral bone mineral density” value was determined as 148 ± 3 mg/cm^2, the “Weight of levator ani muscle” value is 65 ± 6 mg/100 g body weight and the Weight of prostate came to 59 ± 16 mg/100 g body weight. For the same compound, the “RBA (Relative Binding Affinity)” value in test [1] turned out to be 58.
